Each molecule was assayed on Type IV PDE (assay: Type IV PDE inhibitory activity). Settings: Type IV PDE partially purified from rat neutrophils; 3H-cAMP substrate, 30° C., 30 minutes.
Type: biochemical
Protocol: Type I, III, IV, and V PDE isozymes were prepared to study the PDE inhibitory activities of and selectivities with the compound of the invention [Trends Pharmacol Sci., 12, 19-27 (1992)]. Type I PDE was purchased from Sigma Corp. Type III, IV, and V PDE isozymes were partially purified from platelets (Type III and V) or neutrophils (Type IV) collected from rats. Each enzyme source was homogenized in a buffer (pH 6.5) containing 20 mM bisTris, 2 mM EDTA (i.e., ethylenediamine tetraacetate), 0.1 mM PMSF (i.e., phenylmethylsulfonyl fluoride), 5 mM 2-mercaptoethanol, 0.001 mM pepstatin and 0.01 mM leupeptin and was centrifuged at 30000×G for 30 minutes to obtain a supernatant, which was applied to an ion exchange column (Q-sepharose First Flow, Pharmacia Corp.) and was eluted with 0 to 1M sodium acetate. Partially purified isozymes were identified by observing the effects by conventional inhibitors.
Each PDE isozyme and the test compound dissolved in DMSO (i.e., dimethyl sulfoxide) were added to 50 mM Tris-HCl buffer containing 5 mM magnesium chloride. ^3 H-cAMP (for type III and IV PDE) or ^3 H-cGMP (for type I and V PDE) were added as substrates and were reacted at 30° C. for 30 minutes. The reaction was terminated by placing the test tube in boiling water of 100° C. for 5 minutes. The nucleotides formed by PDE were broken down by 5'-nucleotidase to ^3 H-adenosine or 3H-guanosine. The unreacted substrate and reaction product were separated through an ion-exchange column (i.e., QAE sephadex, Pharmacia Corp.) The eluted ^3 H-nucleoside was measured for its radioactivity by a liquid scintillation counter. The inhibitory activities of the compound of the present invention are shown by the IC50 value (M). Further, the inhibitory activities of the test samples against Type I, III, and V are 1/10 or less than that against type IV.

Going from `COc1ccc(C2CNC(=O)CO2)cc1OCCc1cccc2ccccc12` (stereo not shown) [Compound No. 37, 2-[4-methoxy-3-[2-(1-naphthyl)ethoxy]phenyl]morpholin-5-one] to `COc1ccc(C2CN(C)C(=O)CO2)cc1OCCc1cccc2ccccc12` (stereo not shown) [Compound No. 47], the IC50 falls from 2700 nM to 300 nM (9-fold). The second is the more potent here.

Going from `COc1ccc(C2CN(C)C(=O)CO2)cc1OCC1(C)CC1` (stereo not shown) [Compound No. 43] to `COc1ccc(C2CN(C)C(=O)CO2)cc1OCC(C)C` (stereo not shown) [Compound No. 49, 2-[3-(2-methylpropoxy)-4-methoxyphenyl]-4-methylmorpholin-5-one], the IC50 falls from 610 nM to 350 nM (1.7-fold).

Compared with `COc1ccc(C2CN(C)C(=O)CO2)cc1OC` (stereo not shown) [Compound No. 12, 2-(3.4-dimethoxyphenyl)-4-methylmorpholin-5-one], `COc1ccc(C2CN(C)C(=O)CO2)cc1OCC1CC1` (stereo not shown) [Compound No. 52, 2-(3-cyclopropylmethoxy-4-methoxyphenyl)-4-methylmorpholin-5-one] is 1.7-fold lower in IC50: 4700 nM for the first, 2800 nM for the second.

First: CCN1CC(c2ccc(OC)c(OC3CCCC3)c2)OCC1=O (stereo not shown) [Compound No. 17, 2-(3-cyclopentyloxy-4-methoxyphenyl)-4-ethylmorpholin-5-one]
Second: CCCCN1CC(c2ccc(OC)c(OC3CCCC3)c2)OCC1=O (stereo not shown) [Compound No. 19, 4-butyl-2-(3-cyclopentyloxy-4-methoxyphenyl)morpholin-5-one]
The IC50 of the first is 8.3-fold lower: 710 nM for the first, 5900 nM for the second.

Compared with `COc1ccc(C2CNC(=O)CO2)cc1OCC(C)C` (stereo not shown) [Compound No. 39, 2-[3-(2-methylpropoxy)-4-methoxyphenyl]morpholin-5-one], `COc1ccc(C2CNC(=O)CO2)cc1OCc1ccccc1` (stereo not shown) [Compound No. 3, 2-(3-benzyloxy-4-methoxyphenyl)morpholin-5-one] is 3.6-fold higher in IC50: 7800 nM for the first, 28000 nM for the second. The first is the more potent here.

Compared with `COc1ccc(C2CNC(=O)CO2)cc1OCCCCCc1ccccc1` (stereo not shown) [Compound No. 26, 2-[4-methoxy-3-(5-phenylpentyloxy)phenyl]morpholin-5-one], `COc1ccc(C2CNC(=O)CO2)cc1OCCc1ccccc1` (stereo not shown) [Compound No. 4, 2-(4-methoxy-3-phenethyloxyphenyl)morpholin-5-one] is 4.4-fold higher in IC50: 620 nM for the first, 2700 nM for the second. The first is the more potent here.

First: COc1ccc(C2CN(C)C(=O)CO2)cc1OCC1CCCC1 (stereo not shown) [Compound No. 44, 2-(3-cyclopentylmethoxy-4-methoxyphenyl)-4-methylmorpholin-5-one]
Second: COc1ccc(C2CN(C)C(=O)CO2)cc1OCC1CCC1 (stereo not shown) [Compound No. 48, 2-(3-cyclobutylmethoxy-4-methoxyphenyl)-4-methylmorpholin-5-one]
The IC50 of the first is 2-fold higher: 770 nM for the first, 380 nM for the second.

Compared with `COc1ccc(C2(C)CN(C)C(=O)CO2)cc1OC1Cc2ccccc2C1` (stereo not shown) [Compound No. 28, 2.4-dimethyl-2-[3-(2-indanyloxy)-4-methoxyphenyl]morpholin-5-one], `COc1ccc(C2(C)CNC(=O)CO2)cc1OC1Cc2ccccc2C1` (stereo not shown) [Compound No. 27, 2-[3-(2-indanyloxy)-4-methoxyphenyl]-2-methylmorpholin-5-one] is 4.3-fold higher in IC50: 30 nM for the first, 130 nM for the second. The first is the more potent here.

Going from `COc1ccc(C2(c3ccccc3)CN(C)C(=O)CO2)cc1OC1CCCC1` (stereo not shown) [Compound No. 22, 2-(3-cyclopentyloxy-4-methoxyphenyl)-4-methyl-2-phenylmorpholin-5-one] to `COc1ccc(C2(c3ccccc3)CNC(=O)CO2)cc1OC1CCCC1` (stereo not shown) [Compound No. 11, 2-(3-cyclopentyloxy-4-methoxyphenyl)-2-phenylmorpholin-5-one], the IC50 falls from 250 nM to 74 nM (3.4-fold). The second is the more potent here.

`COc1ccc(C2CN(C)C(=O)CO2)cc1OCCCCCc1ccccc1` (stereo not shown) [Compound No. 29, 2-[4-methoxy-3-(5-phenylpentyloxy)phenyl]-4-methylmorpholin-5-one] and `COc1ccc(C2CN(C)C(=O)CO2)cc1OCCOCc1ccccc1` (stereo not shown) [Compound No. 46, 2-[4-methoxy-3-(2-benzyloxyethoxy)phenyl]-4-methylmorpholin-5-one] are within 1.5-fold of each other in IC50: 480 nM for the first, 570 nM for the second.

Going from `COc1ccc(C2CNC(=O)CO2)cc1O[C@H]1CC[C@H](c2ccccc2)CC1` (relative stereo) [Compound No. 33, 2-[4-methoxy-3-(trans-4-phenylcyclohexyloxy)phenyl]morpholin-5-one] to `COc1ccc(C2CN(C)C(=O)CO2)cc1O[C@H]1CC[C@H](c2ccccc2)CC1` (relative stereo) [Compound No. 45, 2-[4-methoxy-3-(trans-4-phenylcyclohexyloxy)phenyl]-4-methylmorpholin-5-one], the IC50 falls from 7200 nM to 580 nM (12-fold). The second is the more potent here.

Compared with `COc1ccc(C2CNC(=O)CO2)cc1OC1CCCCC1` (stereo not shown) [Compound No. 7, 2-(3-cyclohexyloxy-4-methoxyphenyl)morpholin-5-one], `COc1ccc(C2CN(C(C)=O)C(=O)CO2)cc1OC1CCCC1` (stereo not shown) [Compound No. 20, 4-acetyl-2-(3-cyclopentyloxy-4-methoxyphenyl)morpholin-5-one] is 5.5-fold lower in IC50: 11000 nM for the first, 2000 nM for the second.

Compared with `COc1ccc(C2CN(Cc3ccc4ccccc4n3)C(=O)CO2)cc1OC1CCCC1` (stereo not shown) [Compound No. 18, 2-(3-cyclopentyloxy-4-methoxyphenyl)-4-(2-quinolylmethyl)morpholin-5-one], `COc1ccc(C2CN(Cc3ccncc3)C(=O)CO2)cc1OC1CCCC1` (stereo not shown) [Compound No. 16, 2-(3-cyclopentyloxy-4-methoxyphenyl)-4-(4-pyridylmethyl)morpholin-5-one] is 12-fold higher in IC50: 450 nM for the first, 5500 nM for the second.

Going from `COc1ccc(C2(C)CNC(=O)CO2)cc1OC1CCCC1` (stereo not shown) [Compound No. 10, 2-(3-cyclopentyloxy-4-methoxyphenyl)-2-methylmorpholin-5-one] to `CCOC(=O)CN1CC(c2ccc(OC)c(OC3CCCC3)c2)OCC1=O` (stereo not shown) [Compound No. 15, 2-(3-cyclopentyloxy-4-methoxyphenyl)-4-ethoxycarbonylmethylmorpholin-5-one], the IC50 rises from 3000 nM to 7900 nM (2.6-fold). The first is the more potent here.

First: COc1ccc(C2CN(C)C(=O)CO2)cc1OCC1(c2ccccc2)CC1 (stereo not shown) [Compound No. 42, 2-[3-[(1-phenylcyclopropyl)methoxy]-4-methoxyphenyl]-4-methylmorpholin-5-one]
Second: COc1ccc(C2CNC(=O)CO2)cc1OCC1(c2ccccc2)CC1 (stereo not shown) [Compound No. 34, 2-[4-methoxy-3-[(1-phenylcyclopropyl)methoxy]phenyl]morpholin-5-one]
The IC50 of the first is 6.1-fold lower: 310 nM for the first, 1900 nM for the second. The first is the more potent here.

Going from `COc1ccc(C2CNC(=O)CO2)cc1OCCC1Cc2ccccc2C1` (stereo not shown) [Compound No. 50, 2-[3-[2-(2-indanyl)ethoxy]-4-methoxyphenyl]morpholin-5-one] to `COc1ccc(C2CN(C)C(=O)CO2)cc1OCCC1Cc2ccccc2C1` (stereo not shown) [Compound No. 51, 2-[3-[2-(2-indanyl)ethoxy]-4-methoxvphenyl]-4-methylmorpholin-5-one], the IC50 falls from 3800 nM to 100 nM (38-fold). The second is the more potent here.

Compared with `COc1ccc(C2CNC(=O)CO2)cc1OC1Cc2ccccc2C1` (stereo not shown) [Compound No. 6, 2-[3-(2-indanyloxy)-4-methoxyphenyl]morpholin-5-one], `COc1ccc(C2CN(C)C(=O)CO2)cc1OC1Cc2ccccc2C1` (stereo not shown) [Compound No. 21, 2-[3-(2-indanyloxy)-4-methoxyphenyl]-4-methylmorpholin-5-one] is 7.3-fold lower in IC50: 320 nM for the first, 44 nM for the second. The second is the more potent here.

First: COc1ccc(C2CNC(=O)CO2)cc1OCCc1ccc(F)cc1 (stereo not shown) [Compound No. 32, 2-[3-[2-(4-fluorophenyl)ethoxy]-4-methoxyphenyl]morpholin-5-one]
Second: COc1ccc(C2CN(C)C(=O)CO2)cc1OCCc1ccc(F)cc1 (stereo not shown) [Compound No. 41, 2-[3-[2-(4-fluorophenyl)ethoxy]-4-methoxyphenyl]-4-methylmorpholin-5-one]
The IC50 of the first is 4.5-fold higher: 1700 nM for the first, 380 nM for the second.

First: COc1ccc(C2CNC(=O)CO2)cc1OCCOCc1ccccc1 (stereo not shown) [Compound No. 30, 2-[3-[2-(benzyloxy)ethoxy]-4-methoxyphenyl]morpholin-5-one]
Second: CCN1CC(c2ccc(OC)c(OC3Cc4ccccc4C3)c2)OCC1=O (stereo not shown) [Compound No. 40, 4-ethyl-2-[3-(2-indanyloxy)-4-methoxyphenyl]morpholin-5-one]
The IC50 of the first is 61-fold higher: 5700 nM for the first, 93 nM for the second. The second is the more potent here.

Compared with `COc1ccc(C2(c3ccccc3)CN(C)C(=O)CO2)cc1OC1Cc2ccccc2C1` (stereo not shown) [Compound No. 25, 2-[3-(2-indanyloxy)-4-methoxyphenyl]-4-methyl-2-phenylmorpholin-5-one], `COc1ccc(C2(c3ccccc3)CNC(=O)CO2)cc1OC1Cc2ccccc2C1` (stereo not shown) [Compound No. 24, 2-[3-(2-indanyloxy)-4-methoxyphenyl]-2-phenylmorpholin-5-one] is 3.7-fold lower in IC50: 110 nM for the first, 30 nM for the second.

For `COc1ccc(C2(c3ccccc3)CN(Cc3ccncc3)C(=O)CO2)cc1OC1CCCC1` (stereo not shown) [Compound No. 23, 2-(3-cyclopentyloxy-4-methoxyphenyl)-2-phenyl-4-(4-pyridylmethyl)morpholin-5-one], the IC50 was 2400 nM.

Each molecule was assayed on antigen-induced bronchospasms (assay: Inhibitory effect on Antigen-Induced Bronchospasm (Anti-Asthmatic action)). Settings: Cavia porcellus; Hartley male guinea pig sensitized with Ovalbumin; intravenous, 10 minutes before 0.2 mg/kg OA i.v.; Konzett-Roessler method; read-out: Action for suppressing antigen-induced bronchospasms ED50.
Type: in vivo
Protocol: Inhibitory effect on Antigen-Induced Bronchospasm (Anti-Asthmatic action)
A Hartley male guinea pig was sensitized by intramuscular administration of 35 mg Ovalbumin (OA) on first day and fourth day. A tracheal canula was introduced in the guinea pig anesthetized with pentobarbital and artificial ventilation was performed 25 to 29 days after the first sensitization. The overflow of the ventilation was measured by the Konzett-Roessler method while 0.2 mg/kg OA were administered intravenously. The test compound was dissolved in polyethylene glycol 400 and intravenously administered 10 minutes before administration of the antigens.

`COc1ccc(C2CNC(=O)CO2)cc1OCC(C)C` (stereo not shown) [Compound No. 39, 2-[3-(2-methylpropoxy)-4-methoxyphenyl]morpholin-5-one] and `COc1ccc(C2(C)CNC(=O)CO2)cc1OC1Cc2ccccc2C1` (stereo not shown) [Compound No. 27, 2-[3-(2-indanyloxy)-4-methoxyphenyl]-2-methylmorpholin-5-one] are within 1.5-fold of each other in ED50: 8.04 mg/kg for the first, 7.99 mg/kg for the second.
